Assay results as given in ChEMBL document CHEMBL4393696, “5-Arylisothiazol-3(2H)-one-1,(1)-(di)oxides: A new class of selective tumor-associated carbonic anhydrases (hCA IX and XII) inhibitors” (Eur J Med Chem, 2019).

How the values were obtained:
[1] = biological target: Carbonic anhydrase 9 (Homo sapiens, UniProt Q16790); assay: Inhibition of human carbonic anhydrase 9 assessed as inhibitory constant preincubated for 15 mins by stopped-flow CO2 hydration assay
[2] = biological target: Carbonic anhydrase 2 (Homo sapiens, UniProt P00918); assay: Inhibition of human carbonic anhydrase 2 assessed as inhibitory constant preincubated for 15 mins by stopped-flow CO2 hydration assay
[3] = biological target: Carbonic anhydrase 1 (Homo sapiens, UniProt P00915); assay: Inhibition of human carbonic anhydrase 1 assessed as inhibitory constant preincubated for 15 mins by stopped-flow CO2 hydration assay
Chain of Carbonic anhydrase 1 (P00915 whole entry): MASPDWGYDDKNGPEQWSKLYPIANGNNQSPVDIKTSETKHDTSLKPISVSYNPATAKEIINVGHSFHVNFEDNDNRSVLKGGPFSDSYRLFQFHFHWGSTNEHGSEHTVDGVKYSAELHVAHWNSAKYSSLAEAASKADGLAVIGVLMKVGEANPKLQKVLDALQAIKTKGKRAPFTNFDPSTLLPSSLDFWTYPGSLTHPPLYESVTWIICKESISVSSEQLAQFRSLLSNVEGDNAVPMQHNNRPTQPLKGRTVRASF

[4] = biological target: Carbonic anhydrase 12 (Homo sapiens, UniProt O43570); assay: Inhibition of human carbonic anhydrase 12 assessed as inhibitory constant preincubated for 15 mins by stopped-flow CO2 hydration assay
Chain of Carbonic anhydrase 12 (O43570 whole entry): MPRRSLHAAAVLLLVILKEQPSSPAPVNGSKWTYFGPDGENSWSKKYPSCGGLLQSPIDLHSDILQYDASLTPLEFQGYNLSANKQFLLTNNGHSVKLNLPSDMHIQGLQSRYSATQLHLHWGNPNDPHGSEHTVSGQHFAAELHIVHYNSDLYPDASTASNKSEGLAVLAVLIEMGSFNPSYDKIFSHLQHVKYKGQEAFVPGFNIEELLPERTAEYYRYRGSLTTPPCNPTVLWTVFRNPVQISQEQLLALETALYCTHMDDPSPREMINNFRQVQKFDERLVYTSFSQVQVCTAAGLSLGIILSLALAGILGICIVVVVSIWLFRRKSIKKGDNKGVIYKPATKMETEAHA

Ki [1] [nM] | Ki [2] [nM] | Ki [3] [nM] | Ki [4] [nM] | Compound
28.4 | 1570 | > 10000 |  | CC(C)(C)N1C(=O)C=C(c2ccccc2)S1(=O)=O
347 | > 10000 | > 10000 |  | CC(C)(C)N1C(=O)C=C(c2cc3ccccc3n2S(=O)(=O)c2ccccc2)S1(=O)=O
45.5 | > 10000 | > 10000 |  | O=c1cc(-c2ccccc2)[s+]([O-])[nH]1 (stereo not drawn)
4.5 | > 10000 | > 10000 |  | CC(C)(C)n1c(=O)cc(-c2ccccc2)[s+]1[O-] (stereo not drawn)
101 | > 10000 | > 10000 |  | O=c1cc(-c2cn(S(=O)(=O)c3ccccc3)c3ccccc23)[s+]([O-])[nH]1 (stereo not drawn)
40.3 | > 10000 | > 10000 |  | O=C1C=C(c2ccccc2)S(=O)(=O)N1
47.7 | > 10000 | > 10000 |  | CC(C)(C)OC(=O)n1c(-c2cc(=O)n(C(C)(C)C)[s+]2[O-])cc2ccccc21 (stereo not drawn)
227 | > 10000 |  |  | CC(C)(C)N1C(=O)C=C(Cl)S1(=O)=O
8.8 | 2110 | > 10000 |  | CC(C)(C)n1c(=O)cc(-c2cn(S(=O)(=O)c3ccccc3)c3ccccc23)[s+]1[O-] (stereo not drawn)
4.3 | 81.8 | > 10000 |  | CC(C)(C)N1C(=O)C=C(c2cn(S(=O)(=O)c3ccccc3)c3ccccc23)S1(=O)=O
98.5 | > 10000 |  |  | CC(C)(C)n1sc(Cl)cc1=O
133 | > 10000 |  |  | CC(C)(C)n1c(=O)cc(-c2cc3ccccc3s2)[s+]1[O-] (stereo not drawn)
16 | > 10000 |  |  | CC(C)(C)n1c(=O)cc(-c2ccc3ccccc3c2)[s+]1[O-] (stereo not drawn)
48.6 | > 10000 | > 10000 |  | CC(C)(C)n1c(=O)cc(-c2cccs2)[s+]1[O-] (stereo not drawn)
40.3 | > 10000 | > 10000 |  | CC(C)(C)n1c(=O)cc(-c2cc3ccccc3n2S(=O)(=O)c2ccccc2)[s+]1[O-] (stereo not drawn)
221 | > 10000 | > 10000 |  | CC(C)(C)N1C(=O)C=C(c2cccs2)S1(=O)=O
237 | > 10000 | > 10000 |  | COc1cc(-c2cc(=O)n(C(C)(C)C)[s+]2[O-])cc(OC)c1OC (stereo not drawn)
251 | > 10000 |  |  | CC(C)(C)n1c(=O)cc(-c2cc3ccccc3o2)[s+]1[O-] (stereo not drawn)
171 | > 10000 | 454 | 53.6 | CC(C)(C)n1c(=O)cc(Cl)[s+]1[O-] (stereo not drawn)
